Consider one molecule from patent US9388126B2, “Sigma receptor ligands and methods of modulating cellular protein homeostasis using same” (Drexel University, priority 2012, dated 2016).

Where two headings read alike, the source gives them in different places.

In test [1] the test system is MDA-MB-468 cells. Kind of test: ER stress / UPR marker immunoblots. The note with it: for EC50: mean of two determinations. It counts as cell-based, human. As to the method:
Cells were lysed and proteins extracted in a modified RIPA buffer (25 mM Tris-HCl pH 7.6, 150 mM NaCl, 1% NP-40, 1% sodium deoxycholate and 0.1% SDS) supplemented with 10% glycerol (volume/volume), complete protease inhibitor cocktail (Roche), and Halt phosphatase inhibitor cocktail (Pierce). Approximately 10-20 μg of detergent soluble protein were resolved on NOVEX 10-20% polyacrylamide Tris-glycine gels (InVitrogen). Immunoblots were performed in a 20 mM Tris-buffered 137 mM saline solution (pH 7.6) containing 0.1% Tween-20 (polyoxyethylene (20) sorbitan monolaurate) and 5% (weight/volume) blotting grade non-fat dry milk (BioRad). The Lumigen PS-3 enhanced chemiluminescence kit (GE Healthcare) was used to reveal immunoblotted proteins.
Whether Sigma antagonists immediately induce autophagy or whether it is activated downstream of other cellular events was next examined. As Sigma1 is highly enriched in the ER, next examined was whether antagonist treatment could induce ER stress mediated UPR. Components of the IRE1α-JNK1/2 and eIF2α-ATF4 branches of the UPR as well as the UPR-associated ER chaperone, GRP78/BiP, were assayed as indicators of activated UPR.
All of the above-mentioned markers of ER stress were evaluated following treatment with increasing doses of Sigma ligands in order to compare UPR with the dose-responsive activation of autophagy. Sigma1 antagonist, IPAG, activated the UPR in a dose-responsive manner (FIG. 6).

Test [2] deals with MDA-MB-468 cells. Briefly: Cell death by trypan blue exclusion. It counts as cell-based, human. As to the method: Trypan blue exclusion and propidium iodide staining were used to quantify general cell death and the presence of apoptotic cell death was confirmed by immunoblot. The percentage of dead cells in a given population was determined by quantifying the number of trypan blue positive (dead) cells and dividing by the total number of trypan blue positive and negative cells.

Test [3] relates to MCF-7, T47D, DU145, PC3, HepG2 and Panc1 cells. Briefly: LC3BII immunoblot in a range of tumor cell lines. Format: cell-based, human. The note with it: 10 μM, 24 hours. On the procedure: FIG. 36, comprising FIGS. 36A-36C, illustrates Sigma1 antagonist associated autophagy. FIG. 36A, comprises representative images of translocation of GFP-tagged LC3 (LC3-GFP) into autophagosomes in MDA-MB-468 (MDA468) breast adenocarcinoma cells. Only antagonist-treated MDA-MB-468 cells presented LC3-GFP translocation to autophagosomes: […]. […] The images are representative of at least 80 fields for each treatment condition. FIG. 36B is an image of an immunoblot illustrating the finding that formation of GFP-LC3II the formation of GFP-LC3 positive punctae, an indicator of autophagosome formation. Protein extracts from MDA-MB-468 cells stably transfected with and expressing GFP-LC3, treated for 24 hours with 10 μM of the indicated Sigma1 ligand. FIG. 36C comprises images of immunoblots illustrating that increased levels of the microtubule associated protein light chain 3BII isoform (LC3BII) is another broadly used indicator of activated autophagy. […] Legend: MCF-7 (breast adenocarcinoma), T47D (breast adenocarcinoma), DU145 (prostate adenocarcinoma), PC3 (prostate adenocarcinoma), HepG2 (hepatocellular carcinoma), and Panc1 (pancreatic adenocarcinoma).

Another test concerns PC3 and DU145 PCa cells. Kind of test: UPR induction in prostate cancer cell lines. It counts as cell-based, human. The note with it: preliminary experiments. An excerpt:
FIG. 15 is an image of an immunoblot illustrating induction of UPR in a prostate cancer cell line. […] P-IRE1α indicates phosphorylated IRE1α. Similar results were obtained with DU145 prostate cancer cells.
This might be due to an accumulation of ubiquitylated proteins or due to an increase in ubiquitin ligase activity. Progression of the ER stress response could be monitored by a set of markers, many of which have been directly linked to the UPR. The most extensively investigated sensors that initiate the UPR are IRE1α, PERK, and ATF6, which transduce signals to a cascade of effectors. Many of these UPR 4 effectors function as transcription factors that induce the synthesis of ER chaperones, such as GRP78/BiP and GRP94, involved in maintaining protein homeostasis.

In a further test the target is T1, Sigma1 in SKBR3 cells (Homo sapiens, UniProt Q99720).
T1 construct: endogenous in cells; host or cells: SKBR3
T1 sequence (Q99720 whole entry): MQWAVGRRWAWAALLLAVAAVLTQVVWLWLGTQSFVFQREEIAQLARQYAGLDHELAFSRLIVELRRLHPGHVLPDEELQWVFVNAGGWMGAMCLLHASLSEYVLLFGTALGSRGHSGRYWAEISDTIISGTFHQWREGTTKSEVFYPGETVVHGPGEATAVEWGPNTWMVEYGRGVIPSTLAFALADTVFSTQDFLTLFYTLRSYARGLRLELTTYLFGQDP
Kind of test: Sigma1 protein level and sub-cellular fractionation. Format: cell-based. The note with it: 12-16 hours. As to the method: FIG. 66, comprising FIGS. 66A-66H, illustrates the non-limiting mechanism(s) of Sigma1 ligand actions, wherein Sigma ligand treatment induces differential localization of Sigma1. […] FIG. 66B is an immunoblot of the fractions collected from biochemical sub-cellular fractionation assay. […] FIG. 66C is a graph illustrating quantification of bands in FIG. 66B. FIG. 66D is a set of images of confocal immunofluorescence microscopy of Sigma1 in SKBR3 cells treated for 12-16 hours with IPAG. Green signal indicated Sigma1, blue signal (DAPI) indicated nucleus. FIG. 66E is a set of graphs illustrating quantification of fractions collected from biochemical sub-cellular fractionation assay performed using SKBR3 cells. […] Functional and physical association with LC3II and functional interaction with VCP are reported in the literature. FIG. 66H is a set of confocal microscopy images, with evidence of co-localization of poly-ubiquitylated proteins and p62SQSTM. […] The ubiquitin-p62SQSTM co-localization and distribution pattern changed subsequent to IPAG treatment. […] Sigma1 functional related and physical associated proteins were redistributed to the other parts of the cell, especially into autophagosome.

A further test deals with Sigma1 (Homo sapiens, UniProt Q99720). The note with it: read-out: Ki, affinity for the Sigma1; cited from earlier work.
Sequence of Sigma1 (Q99720 whole entry): as above

By Ki is commonly meant a dissociation constant, usually derived from enzyme kinetics or from competition with a known ligand. `N=C(Nc1ccc(I)cc1)NC1C2CC3CC(C2)CC1C3` (centres unmarked) [IPAG, 1-(4-iodophenyl)-3-(2-adamantyl)guanidine]: the “activation of UPR markers at a dose that does not produce autophagosomes” value with MDA-MB-468 cells [1] (1 μM, 24 hours) is “salient activation of at least seven markers of UPR”. Further, the EC50 with MDA-MB-468 cells [1] (24 hours, read-out: EC50 for phosphorylation of JNK (Thr183/Tyr185)) was determined as 1700 nM; in the test with MDA-MB-468 cells [1] (Homo sapiens, MDA-MB-468, 24 h, read-out: EC50 for induction of ATF4), 500 nM; with MDA-MB-468 cells [1] (Homo sapiens, MDA-MB-468, 24 h, read-out: EC50 for induction of IRE1α) it was 900 nM; in the test with MDA-MB-468 cells [1] (Homo sapiens, MDA-MB-468, 24 h, read-out: EC50 for phosphorylation of JNK (Thr183/Tyr185)) it was 1600 nM; with MDA-MB-468 cells [1] (Homo sapiens, MDA-MB-468, 24 h, read-out: EC50 for phosphorylation of eIF2α (Ser51)) it was 2300 nM; in the test with MDA-MB-468 cells [1] (Homo sapiens, MDA-MB-468, 24 h, read-out: EC50 for phosphorylation of p38MAPK (Thr180/Tyr182)) it was 500 nM. In addition, the EC50 in the test on MDA-MB-468 cells [1] (Homo sapiens, MDA-MB-468, 24 hours, read-out: EC50 for induction of GRP78/BiP) was determined as 1400 nM. Besides, the “dead cells per well” value in the test on MDA-MB-468 cells [2] (10 μM, 24 hours, with 3-MA (5 mM) or siRNA knockdown of Beclin1) is on record as “over 33%”; in the test with MDA-MB-468 cells [2] (24 hours, combined treatment with IPAG and 3-MA), 24±5%; in the test with MDA-MB-468 cells [2] (knockdown of ATF4), 30±9%. In addition, the “proportion of dead cells (apoptotic cell death)” value in the test on MDA-MB-468 cells [2] (10 μM, 48 hours of continuous treatment) is listed as 30±2%. In addition, the “proportion of dead cells” value in the test on MDA-MB-468 cells [2] (24 hours, IRE1α knockdown) was 47±8%; with MDA-MB-468 cells [2] (24 hours, control siRNA transfected cells), 9±4%; with MDA-MB-468 cells [2] (by 72 hours), greater than 75%. Further, in test [3], the LC3BII levels entry was “salient induction of LC3BII levels”. Also, the “IRE1α and BiP levels” value with PC3 and DU145 PCa cells is “salient induction of IRE1α and BiP levels”. Moreover, the “Sigma1 steady-state protein levels” value at Sigma1 in SKBR3 cells is “Sigma1 steady-state protein levels do not change”. Also, at Sigma1 in SKBR3 cells, the Sigma1 sub-cellular distribution result is “Sigma1 distribution is altered”. In addition, the Ki on Sigma1 is 5 ± 2 nM.
